Residues, ends and D or L forms follow the SMILES beside them. *: point of attachment. Palmitoyl = CCCCCCCCCCCCCCCC(=O)*
Molecular target: T1, TRPV6 WT (Homo sapiens, UniProt Q9H1D0)
T1 construct: expressed in transfected cells; host or cells: HEK293 cells, transient transfection
T1 sequence (Q9H1D0 41-765 limits assumed): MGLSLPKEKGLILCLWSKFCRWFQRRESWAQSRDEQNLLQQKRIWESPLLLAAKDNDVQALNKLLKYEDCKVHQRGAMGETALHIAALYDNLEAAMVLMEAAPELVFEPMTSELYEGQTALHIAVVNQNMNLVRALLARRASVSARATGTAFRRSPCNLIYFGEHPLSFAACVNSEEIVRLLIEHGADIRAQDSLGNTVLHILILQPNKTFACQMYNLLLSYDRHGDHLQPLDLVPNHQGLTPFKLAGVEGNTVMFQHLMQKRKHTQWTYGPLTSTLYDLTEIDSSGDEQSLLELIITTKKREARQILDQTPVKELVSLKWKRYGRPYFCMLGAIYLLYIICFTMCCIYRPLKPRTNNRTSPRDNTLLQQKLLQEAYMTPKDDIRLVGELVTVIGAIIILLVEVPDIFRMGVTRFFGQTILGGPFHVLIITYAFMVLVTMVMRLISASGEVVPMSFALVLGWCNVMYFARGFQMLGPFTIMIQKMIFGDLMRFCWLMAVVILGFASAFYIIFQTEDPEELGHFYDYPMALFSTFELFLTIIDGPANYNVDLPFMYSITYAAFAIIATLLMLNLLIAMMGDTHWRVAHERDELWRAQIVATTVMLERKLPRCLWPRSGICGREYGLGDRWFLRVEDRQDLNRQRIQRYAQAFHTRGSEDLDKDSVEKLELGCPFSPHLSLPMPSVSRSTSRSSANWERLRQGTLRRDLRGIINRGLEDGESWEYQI
Test: NFAT localization, TRPV6 WT
Type: cell-based
Settings: HEK293 cells
Description: N-terminally TagRFP-labeled human TRPV6 (725 aa) was kindly provided by R. Bhardwaj and M. Hediger (University of Bern, Bern, Switzerland). This variant is translated from the first ATG codon and thus deviates from the non-ATG-initiated protein which is expressed in vivo (accession number NM_018646.6) by lacking 40 amino acids of the very N-terminus. For N-terminal labeling with EYFP, TRPV6 was cloned into pEYFP-C1 (Clontech) via EcoRI and SacII restriction sites. Mutations (F468A, R470A, F472A, K484A/Q, G488R, R492A/Q, I575A, G579A, D580A/K, H582A, W583A/F, H587A, R589A, W593A, R632A/Q, R470A, W583F) were introduced using the QuickChange XL site-directed mutagenesis kit (Stratagene, San Diego, CA, USA) and Pfu DNA Polymerase (Promega, Madison, WI, USA). pTagRFP-hTRPV6 I575A was kindly provided by the lab of M. Hediger (University of Bern, Bern, Switzerland). Forward and reverse primers for site-directed mutagenesis were synthesized by Eurofins genomics GmbH (Wien, Vienna, Austria). Intactness of the constructs in terms of sequence was confirmed by sequencing (Microsynth Austria GmbH, Wien, Vienna, Austria; Eurofins genomics GmbH, Wien, Vienna, Austria). In the present experiments, Tag-RFP-labeled constructs were implemented for NFAT screens, patch clamp measurements, and Fura-2-based Ca^2+ imaging, while for R.Geco1.2 measurements, TRPV6 WT and mutants were used which carried an EYFP label at the N-terminus (pEYFP-C1 vector) to avoid spectral overlap. R.Geco1.2 was purchased from Addgene (No. 45494), and mCherry-CRY2-5ptase OCRL was established in the lab of P. De Camilli and was derived from Addgene (No. 66836), as was CIBN-CAAX (No. 79574). Plasmids encoding for mCerulean3-CRY2-5′ ptase OCRL, YFP-CIBN-CAAX, and the mCherry-tagged PH domain were provided by K. Groschner (Medical University of Graz, Graz, Austria). […] CFP-NFAT (NFATc1, equivalent to NFAT2) was kindly provided by R. Kehlenbach (Scripps Research Institute, La Jolla, CA, USA).
After incubation, cover slips were carefully rinsed with phenol red-free DMEM supplemented with the compound and dosage corresponding to the previous incubation, which was then also present during imaging. In any case, an untreated control was included as well, using phenol red-free DMEM as imaging solution. Subcellular NFAT localization of TRPV6 expressing cells was again monitored on an Axiovert 135 inverted microscope (Zeiss, Oberkochen, Germany), as described in more detail before. Excitation of CFP relied on the 425 nm LED in combination with a CHROMA 69,008× ET ECFP/EYFP/mCherry 25mm Dia Mounted filter. Images were analyzed using Matlab2018a, differentiating between three cell populations based on the ratio of CFP emission intensity originating from the nucleus and the cytosol, similar to Schober et al. (2019).

[1] = 5 μM cis-22a, three or four hours

| SMILES | NFAT localization patterns (10 μM pal-PIP2 peptide, 15–20 min or 2 h) | NFAT distribution pattern (0.1 μM cis-22a, 2 h, 37 °C, vs DMSO about 90% nuclear, about 10% homogeneous) | nuclear NFAT localization (% of cells) (5 μM cis-22a, 2 h, vs DMSO control 90% nuclear) | NFAT cytosolic localization [1] | NFAT nuclear localization [1] | NFAT homogeneous vs cytosolic localization (10 μM cis-22a, 2 h) | NFAT cytosolic localization, dose dependence (0.1, 1, 5, 10 μM cis-22a, 2 h) | NFAT nuclear localization, dose dependence (1, 5, or 10 μM cis-22a, 2 h, 37 °C) |
| --- | --- | --- | --- | --- | --- | --- | --- | --- |
| CCCCCCCCCCCCCCCC(=O)N[C@@H](Cc1c[nH]cn1)C(=O)N[C@@H](CCCNC(=N)N)C(=O)N[C@@H](CCC(N)=O)C(=O)N[C@@H](CCCCN)C(=O)N[C@@H](Cc1c[nH]cn1)C(=O)N[C@@H](Cc1ccccc1)C(=O)N[C@@H](CCC(=O)O)C(=O)N[C@@H](CCCCN)C(=O)N[C@@H](CCCNC(=N)N)C(=O)N[C@@H](CCCNC(=N)N)C(N)=O [pal-PIP2 peptide] (Palmitoyl-HRQKHFEKRR-NH2) | unable to change localization patterns | – | – | – | – | – | – | – |
| Cc1cccc(C2CCC(N3CCN(c4cccnc4)CC3)CC2)c1.O=C(O)C(F)(F)F (stereo not drawn) [cis-22a] | – | essentially preserved | 22% | roughly 40% | only a small proportion of cells maintained nuclear localization | the likelihood for homogeneous and cytosolic localization equalized | only observed at the two highest concentrations tested | continuously decreased the proportion of cells showing nuclear NFAT localization but favored a homogeneous distribution |
